Reference: patent US12458605B2, “Lipid nanoparticle” (National University Corporation Hokkaido University, priority 2020, dated 2025)
Values joined by “and” are separate entries in the source; they are usually repeats but may differ in a detail not shown here. Equal values may be shown once.

Columns and labels:
[1] = system: spleen; test: In vivo Fluc activity of FlucmRNA-loaded LNP by in vivo imaging, spleen; details: Balb/c mice, 6 hours; for Fluc activity in the spleen, compared with CL4F6: 0.1 mg mRNA/kg, versus LNP comprising CL4F6 (Tables 5 and 6); for Fluc Activity in spleen: FlucmRNA-loaded LNP i.v. 0.1 mg mRNA/kg
In short: (§1)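 Read-out is average radiance (p/s/cm2/sr, about 560 nm) from whole-animal imaging of liver and spleen 6 h post-dose, after tail-vein luciferin at 1.5 mg/mouse. Dosing was intravenous, 0.1 mg mRNA/kg, in 7-week-old female Balb/c mice.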

[2] = system: F7; test: In vivo F7 knockdown, plasma F7 enzyme activity (BIOPHEN FVII), Balb/c mice; details: i.v. 0.025 mg siRNA/kg, plasma at 24 hours; for F7 enzyme activity (%): untreated mice as 100%
In short: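 Plasma factor VII activity was read 24 h after a single intravenous 0.025 mg siRNA/kg dose of siRNA-loaded lipid nanoparticles in 5-week-old female Balb/c mice. Activity is relative to untreated animals (100%) and normalised to the MC3 nanoparticle benchmark (=1).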

[3] = siRNA/mRNA encapsulation rate by Ribogreen reagent (section IV); type: physicochemical; details: for % siRNA encapsulation: F7siRNA-loaded LNP, 50:10:38.5:1.5, N/P ratio 6; for % mRNA encapsulation: FlucmRNA-loaded LNP, 50:10:38.5:1.5
In short: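 Encapsulation % was calculated as (total − surface nucleic acid)/total × 100, with both values measured by RiboGreen fluorescence at 485/528 nm. Total RNA was read on LNPs lysed with 1% Triton X-100 at 1.2 μg/mL, and surface RNA on intact LNPs at 8 μg/mL in TE buffer. Concentrations came from a 0-2.5 μg/mL Triton-containing calibration curve.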

[4] = Stability of pDNA-loaded LNP standing at 40° C.; type: physicochemical; details: for Quality 40° C. 1 M / Quality 40° C. 1 W: pDNA-loaded LNP; for Particle size (nm), 40° C. 1 M / encapsulation rate (%), 40° C. 1 M: pDNA-loaded LNP after standing at 40° C. 1 M; for Particle size (nm), 40° C. 1 W / encapsulation rate (%), 40° C. 1 W: pDNA-loaded LNP after standing at 40° C. 1 W
Procedure: Prepared lipid nanoparticles were allowed to stand at 40° C., and after keeping for each period, they were evaluated whether quality was well remained according to the following criteria: • Good (O): particle size is within +/−20 nm of the particle size immediately after preparation, and PDI is 0.2 or less, and encapsulation rate is 80% or more; • No good (X): particle size is greater than +/−20 nm of the particle size immediately after preparation, or encapsulation rate is less than 80%.
The lipid nanoparticles which remain in good quality with standing at 40° C. for one week or more can be evaluated as having excellent stability.

[5] = Average particle size (ζ-Average) and PDI by dynamic light scattering (Zetasizer Nano ZSP); type: physicochemical; details: for Particle size (nm), immediately after the preparation: pDNA (eGFP)-loaded LNP
In short: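 Dynamic light scattering of the particles in PBS(−) gave both the polydispersity index and the ζ-Average mean size.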

[6] = pDNA encapsulation rate by Picogreen reagent; type: physicochemical; details: pDNA (eGFP)-loaded LNP
Procedure: The encapsulation rate of pDNA of the lipid nanoparticles was measured using Picogreen (registered trademark) reagent (Quant-iT™ dsDNA Assay Kit, broad range, manufactured by Thermofisher Scientific). In encapsulation rate measurement of pDNA, the nucleic acid concentration in solution for measuring nanoparticle surface nucleic acid concentration was set at 1.6 μg/mL, the nucleic acid concentration in solution for measuring total nucleic acid concentration […], and the nucleic acid concentration used for calibration curve 0-0.5 μg/mL, and the same method as the method for measuring encapsulation rate of siRNA and mRNA was carried out except that Picogreen (registered trademark) reagent (Quant-iT™ dsDNA Assay Kit, broad range, manufactured by Thermofisher Scientific) was used as measurement reagent. Encapsulation rate %=(nucleic acid concentration in solution for measuring total nucleic acid concentration (μg/mL)−nucleic acid concentration in solution for measuring nanoparticle surface nucleic acid concentration (μg/mL))/(nucleic acid concentration in solution for measuring total nucleic acid concentration (μg/mL))×100. <Results>

[7] = system: liver; test: In vivo Fluc activity of FlucmRNA-loaded LNP by in vivo imaging, liver; details: Balb/c mice, 6 hours; for Fluc Activity in liver: FlucmRNA-loaded LNP i.v. 0.1 mg mRNA/kg
In short: as §1

[8] = Storage stability of FlucmRNA-loaded LNP at −80, 5, 25 and 40° C.; type: physicochemical; details: for period for which quality remained good, −80° C.: maximum storage period 1 week; for period for which quality remained good, 5° C. / period for which quality remained good, 25° C. / period for which quality remained good, 40° C. (weeks): maximum storage period 5 weeks
In short: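 Reported period is how long all three criteria hold: encapsulation rate at 80% or more, PDI of 0.2 or less, and mean particle size within +/−20 nm of day-of-preparation value. Particle size, PDI and nucleic acid encapsulation were tracked over time at storage temperatures of −80, 5, 25 and 40° C.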

[9] = system: factor VII (F7); details: mouse liver; lipid as LNP carrier of siRNA; cited from earlier work
[10] = F7siRNA-loaded LNP, 50:10:38.5:1.5, N/P ratio 6
[11] = FlucmRNA-loaded LNP, 50:10:38.5:1.5
[12] = FlucmRNA-loaded LNP, lipid:DSPC:cholesterol:DMG-PEG2K 50:10:38.5:1.5

| Compound | Fluc Activity in spleen [1] | F7 enzyme activity (%) [2] | % siRNA encapsulation [3] | % mRNA encapsulation [3] | Quality 40° C. 1 M [4] | Quality 40° C. 1 W [4] | Particle size (nm), 40° C. 1 M [4] | encapsulation rate (%), 40° C. 1 M [4] | Particle size (nm), 40° C. 1 W [4] | encapsulation rate (%), 40° C. 1 W [4] | PDI [5, 10] | ζ-Average (nm) [5, 10] | PDI [5, 11] | ζ-Average (nm) [5, 12] | Particle size (nm), immediately after the preparation ([5]; 50:10:38.5:1.5) | encapsulation rate (%), immediately after the preparation [6] | period for which quality remained good, −80° C. [8] | period for which quality remained good, 5° C. [8] | period for which quality remained good, 25° C. [8] | period for which quality remained good, 40° C. (weeks) [8] | other results |
| --- | --- | --- | --- | --- | --- | --- | --- | --- | --- | --- | --- | --- | --- | --- | --- | --- | --- | --- | --- | --- | --- |
| CCCCCCCCC(CCCCC)C(=O)OCCCCCCC(O)(CCCCCCOC(=O)C(CCCCC)CCCCCCCC)CCCCN(CCC)CCC (stereo not shown) [CL4F 10-5] | 4.64E+06 Avg Radiance [p/s/cm2/sr] | 3% | 100.1% | 99.7% | ∘ | ∘ | 104.2 nm | 98.5% | 101.0 nm | 98.3% | 0.006 | 98.70 nm | 0.021 | 84.62 nm | 101.6 nm | 98.2% | 1 week | 5 weeks | 5 weeks | 5 weeks | Fluc activity in the spleen, compared with CL4F6 [1]: higher Fluc activity; Fluc Activity in liver [7]: 1.06E+08 Avg Radiance [p/s/cm2/sr] |
| CCCCCCCC(CCCCCCC)C(=O)OCCCCCCC(O)(CCCCCCOC(=O)C(CCCCCCC)CCCCCCC)CCCCN(CCC)CCC [CL4F 9-7] | 2.43E+06 Avg Radiance [p/s/cm2/sr] | 4.3% | 99.9% | 99.2% | ∘ | ∘ | 101.4 nm | 98.1% | 97.1 nm | 98.0% | 0.020 | 97.03 nm | 0.004 | 81.30 nm | 98.2 nm | 98.1% | 1 week | 5 weeks | 5 weeks | 5 weeks | Fluc activity in the liver, compared with CL4F6 ([7]; 0.1 mg mRNA/kg, versus LNP comprising CL4F6 (Tables 5 and 6)): higher Fluc activity; Fluc Activity in liver [7]: 1.55E+08 Avg Radiance [p/s/cm2/sr] |
| CCCCCCCCCCC(O)CN(CCCCC1NC(=O)C(CCCCN(CC(O)CCCCCCCCCC)CC(O)CCCCCCCCCC)NC1=O)CC(O)CCCCCCCCCC (stereo not shown) [cKK-E12] | – | – | – | – | – | – | – | – | – | – | – | – | – | – | – | – | – | – | – | – | ED50 in F7 knockdown [9]: 0.002 mg siRNA/kg |
| CCCCC/C=C\C/C=C\CCCCCCCCC(CCCCCCCC/C=C\C/C=C\CCCCC)OC(=O)CCCN(C)C [MC3, D-Lin-MC3-DMA, reference compound] | – | 2.5% | 99.1% and 97.6% | 99.0% and 99.04% | – | – | – | – | – | – | – | 81.68 nm and 85.73 nm and 87.69 nm | 0.042 and 0.072 | 68.60 nm and 71.49 nm | – | – | 0 week | 0 weeks | 1 weeks | 0 weeks | F7 enzyme activity (Ratio using MC3 as 1) ([2]; relative plasma F7 activity of MC3 LNP as 1): 1; ED50 in F7 knockdown [9]: 0.005 mg siRNA/kg |
| CCCCCCC(CCCC)C(=O)OCCCCCCC(O)(CCCCCCOC(=O)C(CCCC)CCCCCC)CCCCN(CCC)CCC (stereo not shown) [CL4F 8-4] | 1.41E+07 Avg Radiance [p/s/cm2/sr] | 5.6% | 100.0% | 99.7% | ∘ | ∘ | 116.4 nm | 98.1% | 109.1 nm | 97.8% | 0.006 | 110.00 nm | 0.020 | 101.60 nm | 104.7 nm | 98.0% | 1 week | 5 weeks | 5 weeks | 1 week weeks | Fluc activity in the spleen, compared with CL4F6 [1]: higher Fluc activity; Fluc Activity in liver [7]: 6.09E+07 Avg Radiance [p/s/cm2/sr] |
